Measured values reported in ChEMBL document CHEMBL4507317, “Data for DCP probe BAY-899” (2021).

What was measured:
[1] = molecular target: D(2) dopamine receptor (Homo sapiens) (UniProt P14416); conditions: Compound concentration 10.0 uM
[2] = molecular target: Ephrin type-B receptor 4 (Homo sapiens) (UniProt P54760); conditions: Compound concentration 1000.0 nM
[3] = molecular target: TGF-beta receptor type-1 (Homo sapiens) (UniProt P36897); conditions: Compound concentration 1000.0 nM
[4] = molecular target: 5'-AMP-activated protein kinase catalytic subunit alpha-2 (Homo sapiens) (UniProt P54646); conditions: Compound concentration 1000.0 nM
[5] = molecular target: Megakaryocyte-associated tyrosine-protein kinase (Homo sapiens) (UniProt P42679); conditions: Compound concentration 1000.0 nM
[6] = molecular target: Tyrosine-protein kinase ABL1 (Homo sapiens) (UniProt P00519); conditions: Compound concentration 1000.0 nM
[7] = molecular target: Mitogen-activated protein kinase kinase kinase 14 (Homo sapiens) (UniProt Q99558); conditions: Compound concentration 1000.0 nM
[8] = system: eIF-2-alpha kinase GCN2 (Homo sapiens), Q9P2K8 [S808G]; conditions: Compound concentration 1000.0 nM
[9] = molecular target: 5-hydroxytryptamine receptor 1E (Homo sapiens) (UniProt P28566); conditions: Compound concentration 10.0 uM
[10] = molecular target: Serine/threonine-protein kinase 38-like (Homo sapiens) (UniProt Q9Y2H1); conditions: Compound concentration 1000.0 nM
[11] = molecular target: cAMP-dependent protein kinase catalytic subunit beta (Homo sapiens) (UniProt P22694); conditions: Compound concentration 1000.0 nM
[12] = system: Phosphatidylinositol 4,5-bisphosphate 3-kinase catalytic subunit alpha isoform (Homo sapiens), P42336 [H1047Y]; conditions: Compound concentration 1000.0 nM
[13] = molecular target: Serine/threonine-protein kinase PAK 3 (Homo sapiens) (UniProt O75914); conditions: Compound concentration 1000.0 nM
[14] = molecular target: cAMP-dependent protein kinase catalytic subunit PRKX (Homo sapiens) (UniProt P51817); conditions: Compound concentration 1000.0 nM
[15] = molecular target: 5'-AMP-activated protein kinase catalytic subunit alpha-1 (Homo sapiens) (UniProt Q13131); conditions: Compound concentration 1000.0 nM
[16] = system: Tyrosine-protein kinase ABL1 (Homo sapiens), P00519 [H396P]; conditions: Compound concentration 1000.0 nM
[17] = system: Tyrosine-protein kinase ABL1 (Homo sapiens), P00519 [E255K]; conditions: Compound concentration 1000.0 nM
[18] = system: Mast/stem cell growth factor receptor Kit (Homo sapiens), P10721 [V559D,T670I]; conditions: Compound concentration 1000.0 nM
[19] = molecular target: AP2-associated protein kinase 1 (Homo sapiens) (UniProt Q2M2I8); conditions: Compound concentration 1000.0 nM
[20] = molecular target: Platelet-derived growth factor receptor alpha (Homo sapiens) (UniProt P16234); conditions: Compound concentration 1000.0 nM
[21] = system: Proto-oncogene tyrosine-protein kinase receptor Ret (Homo sapiens), P07949 [M918T]; conditions: Compound concentration 1000.0 nM
[22] = molecular target: D(4) dopamine receptor (Homo sapiens) (UniProt P21917); conditions: Compound concentration 10.0 uM
[23] = molecular target: Serine/threonine-protein kinase PLK1 (Homo sapiens) (UniProt P53350); conditions: Compound concentration 1000.0 nM
[24] = molecular target: Receptor-type tyrosine-protein kinase FLT3 (Homo sapiens) (UniProt P36888); conditions: Compound concentration 1000.0 nM
[25] = molecular target: Serine/threonine-protein kinase Nek11 (Homo sapiens) (UniProt Q8NG66); conditions: Compound concentration 1000.0 nM
[26] = molecular target: Mitogen-activated protein kinase 3 (Homo sapiens) (UniProt P27361); conditions: Compound concentration 1000.0 nM
[27] = molecular target: Serine/threonine-protein kinase PLK4 (Homo sapiens) (UniProt O00444); conditions: Compound concentration 1000.0 nM
[28] = molecular target: Serine/threonine-protein kinase Sgk3 (Homo sapiens) (UniProt Q96BR1); conditions: Compound concentration 1000.0 nM
[29] = molecular target: Activin receptor type-2B (Homo sapiens) (UniProt Q13705); conditions: Compound concentration 1000.0 nM
[30] = molecular target: Serine/threonine-protein kinase B-raf (Homo sapiens) (UniProt P15056); conditions: Compound concentration 1000.0 nM
[31] = molecular target: Rho-associated protein kinase 2 (Homo sapiens) (UniProt O75116); conditions: Compound concentration 1000.0 nM
[32] = molecular target: Tyrosine-protein kinase ABL2 (Homo sapiens) (UniProt P42684); conditions: Compound concentration 1000.0 nM
[33] = molecular target: Muscle, skeletal receptor tyrosine-protein kinase (Homo sapiens) (UniProt O15146); conditions: Compound concentration 1000.0 nM
[34] = molecular target: Ephrin type-A receptor 2 (Homo sapiens) (UniProt P29317); conditions: Compound concentration 1000.0 nM
[35] = molecular target: Phosphatidylinositol 5-phosphate 4-kinase type-2 gamma (Homo sapiens) (UniProt Q8TBX8); conditions: Compound concentration 1000.0 nM
[36] = molecular target: Dual specificity protein kinase TTK (Homo sapiens) (UniProt P33981); conditions: Compound concentration 1000.0 nM
[37] = molecular target: TGF-beta receptor type-2 (Homo sapiens) (UniProt P37173); conditions: Compound concentration 1000.0 nM
[38] = molecular target: Tyrosine-protein kinase Blk (Homo sapiens) (UniProt P51451); conditions: Compound concentration 1000.0 nM
[39] = molecular target: Serine/threonine-protein kinase 32B (Homo sapiens) (UniProt Q9NY57); conditions: Compound concentration 1000.0 nM
[40] = molecular target: GABA-A receptor; anion channel (Rattus norvegicus) (UniProt O09028+P15431+P18506+P18508+P19969+P20236+P23574+P23576+P28471+P28473+P30191+P62813+P63079+P63138+Q91ZM7+Q9ES14); conditions: Compound concentration 10.0 uM
[41] = molecular target: Serine/threonine-protein kinase Nek2 (Homo sapiens) (UniProt P51955); conditions: Compound concentration 1000.0 nM
[42] = molecular target: Ribosomal protein S6 kinase alpha-5 (Homo sapiens) (UniProt O75582); conditions: Compound concentration 1000.0 nM
[43] = molecular target: Tyrosine-protein kinase FRK (Homo sapiens) (UniProt P42685); conditions: Compound concentration 1000.0 nM

Sequence of Rho-associated protein kinase 2 (Homo sapiens) (O75116 whole entry, looked up): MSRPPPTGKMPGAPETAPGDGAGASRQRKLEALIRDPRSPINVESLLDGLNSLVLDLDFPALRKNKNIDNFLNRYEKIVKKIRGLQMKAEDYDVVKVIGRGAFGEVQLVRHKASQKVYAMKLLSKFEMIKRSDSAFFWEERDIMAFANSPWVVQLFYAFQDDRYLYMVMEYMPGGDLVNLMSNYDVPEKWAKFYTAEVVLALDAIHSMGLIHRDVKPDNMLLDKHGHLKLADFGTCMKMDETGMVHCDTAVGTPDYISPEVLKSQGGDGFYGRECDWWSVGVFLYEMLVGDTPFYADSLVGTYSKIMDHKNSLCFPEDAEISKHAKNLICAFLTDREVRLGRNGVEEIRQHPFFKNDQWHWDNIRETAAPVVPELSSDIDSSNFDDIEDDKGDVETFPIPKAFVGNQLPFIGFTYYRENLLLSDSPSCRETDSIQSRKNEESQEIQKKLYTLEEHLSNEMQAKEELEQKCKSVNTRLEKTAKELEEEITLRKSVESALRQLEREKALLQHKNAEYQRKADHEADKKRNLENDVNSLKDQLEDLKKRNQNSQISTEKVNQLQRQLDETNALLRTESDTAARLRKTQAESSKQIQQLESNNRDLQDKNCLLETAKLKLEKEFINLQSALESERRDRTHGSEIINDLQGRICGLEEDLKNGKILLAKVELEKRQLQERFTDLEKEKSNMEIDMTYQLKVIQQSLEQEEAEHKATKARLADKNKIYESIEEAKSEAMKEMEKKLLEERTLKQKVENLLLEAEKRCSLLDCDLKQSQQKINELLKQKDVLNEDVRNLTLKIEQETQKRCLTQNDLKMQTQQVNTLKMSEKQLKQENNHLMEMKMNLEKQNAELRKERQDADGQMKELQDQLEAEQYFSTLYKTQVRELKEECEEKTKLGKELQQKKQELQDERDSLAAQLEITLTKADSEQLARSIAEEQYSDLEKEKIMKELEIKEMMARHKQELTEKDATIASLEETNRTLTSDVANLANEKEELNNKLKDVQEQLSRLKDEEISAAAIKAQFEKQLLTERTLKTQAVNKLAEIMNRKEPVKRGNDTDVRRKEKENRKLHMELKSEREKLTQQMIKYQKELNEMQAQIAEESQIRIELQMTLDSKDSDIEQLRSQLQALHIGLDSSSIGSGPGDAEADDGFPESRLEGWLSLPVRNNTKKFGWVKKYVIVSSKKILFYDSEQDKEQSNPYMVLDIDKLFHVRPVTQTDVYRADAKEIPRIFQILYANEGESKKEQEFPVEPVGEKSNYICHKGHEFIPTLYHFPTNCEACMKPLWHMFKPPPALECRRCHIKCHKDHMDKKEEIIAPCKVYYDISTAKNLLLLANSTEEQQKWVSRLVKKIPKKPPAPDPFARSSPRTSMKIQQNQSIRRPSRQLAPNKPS
Sequence of D(2) dopamine receptor (Homo sapiens) (P14416 whole entry): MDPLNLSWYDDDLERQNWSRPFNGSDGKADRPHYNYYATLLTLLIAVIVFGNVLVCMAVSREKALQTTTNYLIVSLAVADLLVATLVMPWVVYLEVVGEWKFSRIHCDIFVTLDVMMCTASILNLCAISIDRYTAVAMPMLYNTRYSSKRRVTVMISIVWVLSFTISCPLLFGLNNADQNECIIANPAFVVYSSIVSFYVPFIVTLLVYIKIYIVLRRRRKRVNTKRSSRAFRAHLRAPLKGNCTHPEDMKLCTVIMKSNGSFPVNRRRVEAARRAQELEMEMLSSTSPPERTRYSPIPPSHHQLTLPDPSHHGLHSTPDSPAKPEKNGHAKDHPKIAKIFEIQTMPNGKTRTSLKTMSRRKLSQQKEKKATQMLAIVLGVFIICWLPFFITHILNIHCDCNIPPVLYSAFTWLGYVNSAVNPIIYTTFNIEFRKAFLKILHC
Sequence of Phosphatidylinositol 5-phosphate 4-kinase type-2 gamma (Homo sapiens) (Q8TBX8 whole entry): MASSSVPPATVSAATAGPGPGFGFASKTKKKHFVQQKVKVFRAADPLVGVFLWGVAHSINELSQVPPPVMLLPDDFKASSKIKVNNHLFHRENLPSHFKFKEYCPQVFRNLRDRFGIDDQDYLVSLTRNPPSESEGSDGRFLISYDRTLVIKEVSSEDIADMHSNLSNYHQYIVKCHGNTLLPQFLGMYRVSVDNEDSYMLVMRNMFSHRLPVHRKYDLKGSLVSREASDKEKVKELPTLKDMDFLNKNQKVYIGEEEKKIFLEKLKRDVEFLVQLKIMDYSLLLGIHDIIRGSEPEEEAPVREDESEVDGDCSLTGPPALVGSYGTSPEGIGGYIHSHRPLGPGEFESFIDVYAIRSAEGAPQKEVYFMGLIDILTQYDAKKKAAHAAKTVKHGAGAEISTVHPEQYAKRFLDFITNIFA
Sequence of TGF-beta receptor type-2 (Homo sapiens) (P37173 whole entry): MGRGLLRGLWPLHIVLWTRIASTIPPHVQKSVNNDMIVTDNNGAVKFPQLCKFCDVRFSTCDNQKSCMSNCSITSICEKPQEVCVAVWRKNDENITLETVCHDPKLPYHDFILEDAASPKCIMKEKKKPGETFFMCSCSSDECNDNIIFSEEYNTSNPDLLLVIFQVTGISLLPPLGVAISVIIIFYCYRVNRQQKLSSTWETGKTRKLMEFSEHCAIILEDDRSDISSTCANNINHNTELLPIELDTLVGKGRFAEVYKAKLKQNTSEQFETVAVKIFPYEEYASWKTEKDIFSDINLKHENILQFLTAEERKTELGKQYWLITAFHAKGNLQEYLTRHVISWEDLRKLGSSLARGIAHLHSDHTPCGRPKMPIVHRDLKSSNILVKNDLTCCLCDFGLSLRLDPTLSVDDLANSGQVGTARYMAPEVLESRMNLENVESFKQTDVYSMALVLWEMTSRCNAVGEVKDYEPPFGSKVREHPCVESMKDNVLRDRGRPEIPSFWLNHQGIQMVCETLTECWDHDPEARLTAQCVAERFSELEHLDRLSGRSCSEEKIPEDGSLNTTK
Sequence of cAMP-dependent protein kinase catalytic subunit PRKX (Homo sapiens) (P51817 whole entry): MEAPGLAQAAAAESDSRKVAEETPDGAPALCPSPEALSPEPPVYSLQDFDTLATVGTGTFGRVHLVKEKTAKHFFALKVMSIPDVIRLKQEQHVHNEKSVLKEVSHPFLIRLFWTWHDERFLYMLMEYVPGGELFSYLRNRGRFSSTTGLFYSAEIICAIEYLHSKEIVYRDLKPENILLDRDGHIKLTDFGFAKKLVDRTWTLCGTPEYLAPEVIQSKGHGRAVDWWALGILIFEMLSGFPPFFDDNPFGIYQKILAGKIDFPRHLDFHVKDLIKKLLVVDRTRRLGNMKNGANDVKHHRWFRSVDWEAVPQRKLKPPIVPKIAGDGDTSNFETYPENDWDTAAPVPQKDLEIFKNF
Sequence of Serine/threonine-protein kinase PLK1 (Homo sapiens) (P53350 whole entry): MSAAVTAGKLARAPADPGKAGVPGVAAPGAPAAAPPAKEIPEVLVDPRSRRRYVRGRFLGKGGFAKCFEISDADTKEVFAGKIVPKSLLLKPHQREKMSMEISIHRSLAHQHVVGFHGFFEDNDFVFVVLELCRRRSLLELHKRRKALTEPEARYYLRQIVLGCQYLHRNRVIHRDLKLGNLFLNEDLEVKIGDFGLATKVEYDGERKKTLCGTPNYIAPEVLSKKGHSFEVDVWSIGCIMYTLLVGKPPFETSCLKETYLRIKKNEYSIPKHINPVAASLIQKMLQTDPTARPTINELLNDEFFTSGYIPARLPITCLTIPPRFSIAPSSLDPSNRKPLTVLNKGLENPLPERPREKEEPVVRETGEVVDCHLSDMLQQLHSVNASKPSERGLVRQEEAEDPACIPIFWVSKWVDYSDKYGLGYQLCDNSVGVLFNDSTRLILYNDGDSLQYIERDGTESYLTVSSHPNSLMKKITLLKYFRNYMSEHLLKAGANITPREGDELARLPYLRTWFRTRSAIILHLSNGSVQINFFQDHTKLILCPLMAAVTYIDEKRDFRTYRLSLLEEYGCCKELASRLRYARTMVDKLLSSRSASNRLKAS
Sequence of Serine/threonine-protein kinase PLK4 (Homo sapiens) (O00444 whole entry): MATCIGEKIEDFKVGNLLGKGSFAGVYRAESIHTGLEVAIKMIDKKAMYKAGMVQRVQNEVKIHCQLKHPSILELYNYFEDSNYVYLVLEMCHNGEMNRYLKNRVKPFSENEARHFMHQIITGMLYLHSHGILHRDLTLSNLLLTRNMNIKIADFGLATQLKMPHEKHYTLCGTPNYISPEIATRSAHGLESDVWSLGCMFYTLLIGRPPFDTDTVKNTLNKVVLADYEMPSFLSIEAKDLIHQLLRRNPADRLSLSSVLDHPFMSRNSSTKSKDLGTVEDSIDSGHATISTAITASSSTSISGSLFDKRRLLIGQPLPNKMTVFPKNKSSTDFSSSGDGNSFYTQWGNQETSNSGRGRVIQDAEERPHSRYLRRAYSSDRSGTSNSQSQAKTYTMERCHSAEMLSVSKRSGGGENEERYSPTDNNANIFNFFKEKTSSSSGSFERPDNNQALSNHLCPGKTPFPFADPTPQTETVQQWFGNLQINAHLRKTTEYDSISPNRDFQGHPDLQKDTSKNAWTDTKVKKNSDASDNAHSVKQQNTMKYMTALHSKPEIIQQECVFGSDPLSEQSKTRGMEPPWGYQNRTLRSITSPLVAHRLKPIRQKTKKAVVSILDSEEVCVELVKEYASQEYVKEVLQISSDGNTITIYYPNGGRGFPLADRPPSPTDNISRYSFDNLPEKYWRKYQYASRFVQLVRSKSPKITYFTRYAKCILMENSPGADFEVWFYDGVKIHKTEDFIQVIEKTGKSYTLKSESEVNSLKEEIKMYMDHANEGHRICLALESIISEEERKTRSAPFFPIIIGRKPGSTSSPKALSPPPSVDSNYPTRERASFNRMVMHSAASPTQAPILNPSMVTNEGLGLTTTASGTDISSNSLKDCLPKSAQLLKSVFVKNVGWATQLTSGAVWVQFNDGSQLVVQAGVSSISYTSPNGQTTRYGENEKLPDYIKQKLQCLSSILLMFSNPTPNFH

O=C(Nc1ccc(Oc2ccc(F)cc2)cc1)N1CCc2ncccc2[C@H]1c1ccc(F)cc1 [BAY-897]
inactive: inhibition [1] -3.97% | residual activity [2] 100% | residual activity [3] 85% | residual activity [4] 51% | residual activity [5] 90% | residual activity [6] 100% | residual activity [7] 61% | residual activity [8] 100% | inhibition [9] 1.61% | residual activity [10] 76% | residual activity [11] 83% | residual activity [12] 100% | residual activity [13] 100% | residual activity [14] 88% | residual activity [15] 96% | residual activity [16] 92% | residual activity [17] 100% | residual activity [18] 85% | residual activity [19] 95% | residual activity [20] 95% | residual activity [21] 100% | inhibition [22] 0.29% | residual activity [23] 78% | residual activity [24] 77% | residual activity [25] 100% | residual activity [26] 87% | residual activity [27] 94% | residual activity [28] 97% | residual activity [29] 100% | residual activity [30] 85% | residual activity [31] 93% | residual activity [32] 88% | residual activity [33] 92% | residual activity [34] 100% | residual activity [35] 94% | residual activity [36] 94% | residual activity [37] 91% | residual activity [38] 90% | residual activity [39] 72% | inhibition [40] 26.9% | residual activity [41] 93% | residual activity [42] 95% | residual activity [43] 93%

O=C(Nc1cnc(Oc2ccc(F)cc2)nc1)N1CCc2ncccc2[C@@H]1c1ccc(F)cc1 [BAY-899]
inactive: inhibition [1] 1.65% | residual activity [2] 100% | residual activity [3] 90% | residual activity [4] 79% | residual activity [5] 80% | residual activity [6] 93% | residual activity [7] 100% | residual activity [8] 85% | inhibition [9] -8.08% | residual activity [10] 75% | residual activity [11] 85% | residual activity [12] 100% | residual activity [13] 100% | residual activity [14] 93% | residual activity [15] 88% | residual activity [16] 100% | residual activity [17] 100% | residual activity [18] 84% | residual activity [19] 91% | residual activity [20] 93% | residual activity [21] 95% | inhibition [22] 43.8% | residual activity [23] 80% | residual activity [24] 84% | residual activity [25] 100% | residual activity [26] 92% | residual activity [27] 100% | residual activity [28] 100% | residual activity [29] 85% | residual activity [30] 74% | residual activity [31] 100% | residual activity [32] 78% | residual activity [33] 86% | residual activity [34] 99% | residual activity [35] 86% | residual activity [36] 86% | residual activity [37] 100% | residual activity [38] 80% | residual activity [39] 87% | inhibition [40] 19.4% | residual activity [41] 92% | residual activity [42] 85% | residual activity [43] 98%
